# Data from article PMC6199744, “Development of Chemical Proteomics for the Folateome and Analysis of the Kinetoplastid Folateome” (ACS Infectious Diseases, 2018).
# Read-outs that look alike come from different tables or passages of the source.
# Experiments:
# Type in all cases: binding
# [1] = target: T1, HeLa cell extract proteins (Homo sapiens, UniProt Q9Y573)
# T1 construct: endogenous in cells; host or cells: HeLa cell extract
# T1 sequence (Q9Y573 1-584): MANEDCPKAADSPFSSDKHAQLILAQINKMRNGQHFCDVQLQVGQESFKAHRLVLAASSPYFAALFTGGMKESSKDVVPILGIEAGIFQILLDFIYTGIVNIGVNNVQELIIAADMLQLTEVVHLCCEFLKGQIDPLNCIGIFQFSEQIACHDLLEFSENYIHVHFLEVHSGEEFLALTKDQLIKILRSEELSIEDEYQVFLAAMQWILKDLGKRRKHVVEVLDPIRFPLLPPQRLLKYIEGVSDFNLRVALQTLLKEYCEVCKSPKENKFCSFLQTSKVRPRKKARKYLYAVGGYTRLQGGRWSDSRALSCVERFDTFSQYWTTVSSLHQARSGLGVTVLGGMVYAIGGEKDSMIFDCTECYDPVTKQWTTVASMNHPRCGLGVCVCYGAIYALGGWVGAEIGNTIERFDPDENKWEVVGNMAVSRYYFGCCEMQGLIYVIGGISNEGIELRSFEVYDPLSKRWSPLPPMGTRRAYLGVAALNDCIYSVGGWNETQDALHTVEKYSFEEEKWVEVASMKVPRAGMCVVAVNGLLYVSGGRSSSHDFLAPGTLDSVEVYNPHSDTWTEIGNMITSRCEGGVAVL
# [2] = target: T2, HeLa cell extract proteins (Homo sapiens, UniProt O75874)
# T2 construct: endogenous in cells; host or cells: HeLa cell extract
# T2 sequence (O75874 whole entry): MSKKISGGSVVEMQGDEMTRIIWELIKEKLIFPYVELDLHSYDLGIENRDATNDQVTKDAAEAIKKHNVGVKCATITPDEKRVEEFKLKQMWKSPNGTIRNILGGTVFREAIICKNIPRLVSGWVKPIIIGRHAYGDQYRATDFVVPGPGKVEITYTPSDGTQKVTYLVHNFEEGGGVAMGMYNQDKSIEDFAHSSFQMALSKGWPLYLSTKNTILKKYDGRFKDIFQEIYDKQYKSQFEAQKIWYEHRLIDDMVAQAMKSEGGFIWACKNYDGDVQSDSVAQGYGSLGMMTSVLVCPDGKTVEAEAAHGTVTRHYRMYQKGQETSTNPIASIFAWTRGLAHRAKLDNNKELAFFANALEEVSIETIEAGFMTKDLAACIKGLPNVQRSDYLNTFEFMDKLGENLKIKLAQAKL
# [3] = target: T3, HeLa cell extract proteins (Homo sapiens, UniProt P04083)
# T3 construct: endogenous in cells; host or cells: HeLa cell extract
# T3 sequence (P04083 1-346): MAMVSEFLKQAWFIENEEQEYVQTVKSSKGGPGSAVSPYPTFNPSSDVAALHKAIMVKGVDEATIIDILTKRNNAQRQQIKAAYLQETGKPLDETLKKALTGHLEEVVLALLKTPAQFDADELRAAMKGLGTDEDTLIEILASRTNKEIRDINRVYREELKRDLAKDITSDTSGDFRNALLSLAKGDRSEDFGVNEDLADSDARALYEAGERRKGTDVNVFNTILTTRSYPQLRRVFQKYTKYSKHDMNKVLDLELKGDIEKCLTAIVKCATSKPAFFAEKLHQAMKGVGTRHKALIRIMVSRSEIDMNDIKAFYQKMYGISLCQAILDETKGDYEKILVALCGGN
# [4] = target: T4, HeLa cell extract proteins (Homo sapiens, UniProt P26599)
# T4 construct: endogenous in cells; host or cells: HeLa cell extract
# T4 sequence (P26599 whole entry): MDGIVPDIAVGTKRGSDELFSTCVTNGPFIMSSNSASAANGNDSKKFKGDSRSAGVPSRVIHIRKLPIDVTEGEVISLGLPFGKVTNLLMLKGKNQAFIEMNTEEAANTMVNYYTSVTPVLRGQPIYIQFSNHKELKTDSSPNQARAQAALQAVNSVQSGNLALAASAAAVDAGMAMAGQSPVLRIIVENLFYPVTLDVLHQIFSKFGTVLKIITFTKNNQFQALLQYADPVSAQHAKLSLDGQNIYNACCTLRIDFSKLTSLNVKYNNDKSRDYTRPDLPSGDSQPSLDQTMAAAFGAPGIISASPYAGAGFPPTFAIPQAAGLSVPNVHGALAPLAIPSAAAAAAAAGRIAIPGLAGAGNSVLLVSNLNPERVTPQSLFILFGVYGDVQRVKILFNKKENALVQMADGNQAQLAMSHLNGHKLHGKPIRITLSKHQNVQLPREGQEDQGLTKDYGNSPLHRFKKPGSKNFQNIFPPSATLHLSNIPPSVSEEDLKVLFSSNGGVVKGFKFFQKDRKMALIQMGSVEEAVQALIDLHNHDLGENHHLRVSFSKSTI
# [5] = target: T5, HeLa cell extract proteins (Homo sapiens, UniProt P61604)
# T5 construct: endogenous in cells; host or cells: HeLa cell extract
# T5 sequence (P61604 whole entry): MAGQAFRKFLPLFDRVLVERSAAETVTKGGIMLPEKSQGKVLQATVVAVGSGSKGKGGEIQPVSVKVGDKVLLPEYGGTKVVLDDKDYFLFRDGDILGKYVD
# [6] = target: T6, HeLa cell extract proteins (Homo sapiens, UniProt Q16831)
# T6 construct: endogenous in cells; host or cells: HeLa cell extract
# T6 sequence (Q16831 whole entry): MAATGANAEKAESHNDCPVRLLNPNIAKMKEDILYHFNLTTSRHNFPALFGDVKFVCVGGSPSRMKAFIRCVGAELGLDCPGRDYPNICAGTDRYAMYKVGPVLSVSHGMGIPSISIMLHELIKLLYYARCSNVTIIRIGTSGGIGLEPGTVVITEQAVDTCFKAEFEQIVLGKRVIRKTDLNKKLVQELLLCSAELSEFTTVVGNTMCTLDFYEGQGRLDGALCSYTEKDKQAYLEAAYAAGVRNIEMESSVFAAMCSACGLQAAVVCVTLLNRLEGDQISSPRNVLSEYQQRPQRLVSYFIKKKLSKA
# [7] = target: T7, HeLa cell extract proteins (Homo sapiens, UniProt P48651)
# T7 construct: endogenous in cells; host or cells: HeLa cell extract
# [8] = target: T8, HeLa cell extract proteins (Homo sapiens, UniProt P46977)
# T8 construct: endogenous in cells; host or cells: HeLa cell extract
# T8 sequence (P46977 1-705): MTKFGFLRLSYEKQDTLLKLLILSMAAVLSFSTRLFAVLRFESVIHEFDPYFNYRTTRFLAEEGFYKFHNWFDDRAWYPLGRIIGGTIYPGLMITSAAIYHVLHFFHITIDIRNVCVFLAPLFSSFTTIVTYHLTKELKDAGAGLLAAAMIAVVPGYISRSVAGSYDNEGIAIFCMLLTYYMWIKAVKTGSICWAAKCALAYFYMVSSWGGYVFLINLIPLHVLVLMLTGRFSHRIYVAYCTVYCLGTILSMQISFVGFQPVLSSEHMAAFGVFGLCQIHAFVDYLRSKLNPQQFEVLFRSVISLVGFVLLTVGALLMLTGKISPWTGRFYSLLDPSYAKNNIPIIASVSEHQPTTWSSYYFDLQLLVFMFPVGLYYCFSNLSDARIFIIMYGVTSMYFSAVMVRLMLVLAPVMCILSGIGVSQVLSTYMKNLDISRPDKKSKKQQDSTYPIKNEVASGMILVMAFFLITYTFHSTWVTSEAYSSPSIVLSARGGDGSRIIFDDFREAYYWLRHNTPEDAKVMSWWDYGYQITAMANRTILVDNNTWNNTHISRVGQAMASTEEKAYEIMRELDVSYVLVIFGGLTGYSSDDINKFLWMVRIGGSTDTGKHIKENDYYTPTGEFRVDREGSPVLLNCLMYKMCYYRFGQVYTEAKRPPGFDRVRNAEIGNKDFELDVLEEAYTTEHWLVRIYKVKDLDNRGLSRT
# [9] = target: T9, HeLa cell extract proteins (Homo sapiens, UniProt Q14247)
# T9 construct: endogenous in cells; host or cells: HeLa cell extract
# T9 sequence (Q14247 1-550): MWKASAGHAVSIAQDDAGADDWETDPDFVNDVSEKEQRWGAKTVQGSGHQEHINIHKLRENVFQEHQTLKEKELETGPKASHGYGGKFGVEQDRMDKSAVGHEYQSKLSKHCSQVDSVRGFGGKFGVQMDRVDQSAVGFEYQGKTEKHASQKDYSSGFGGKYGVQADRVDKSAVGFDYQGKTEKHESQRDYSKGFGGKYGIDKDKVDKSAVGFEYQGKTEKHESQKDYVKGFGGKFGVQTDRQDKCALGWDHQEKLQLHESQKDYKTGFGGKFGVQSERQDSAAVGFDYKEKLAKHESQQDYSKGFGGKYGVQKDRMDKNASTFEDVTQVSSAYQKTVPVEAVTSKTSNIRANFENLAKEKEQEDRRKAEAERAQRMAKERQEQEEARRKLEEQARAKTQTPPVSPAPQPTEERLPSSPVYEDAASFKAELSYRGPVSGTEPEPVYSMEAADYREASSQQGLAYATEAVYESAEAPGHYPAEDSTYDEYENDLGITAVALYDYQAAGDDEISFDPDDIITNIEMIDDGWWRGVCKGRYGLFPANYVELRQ
# [10] = target: T10, HeLa cell extract proteins (Homo sapiens, UniProt Q71U36)
# T10 construct: endogenous in cells; host or cells: HeLa cell extract
# T10 sequence (Q71U36 whole entry): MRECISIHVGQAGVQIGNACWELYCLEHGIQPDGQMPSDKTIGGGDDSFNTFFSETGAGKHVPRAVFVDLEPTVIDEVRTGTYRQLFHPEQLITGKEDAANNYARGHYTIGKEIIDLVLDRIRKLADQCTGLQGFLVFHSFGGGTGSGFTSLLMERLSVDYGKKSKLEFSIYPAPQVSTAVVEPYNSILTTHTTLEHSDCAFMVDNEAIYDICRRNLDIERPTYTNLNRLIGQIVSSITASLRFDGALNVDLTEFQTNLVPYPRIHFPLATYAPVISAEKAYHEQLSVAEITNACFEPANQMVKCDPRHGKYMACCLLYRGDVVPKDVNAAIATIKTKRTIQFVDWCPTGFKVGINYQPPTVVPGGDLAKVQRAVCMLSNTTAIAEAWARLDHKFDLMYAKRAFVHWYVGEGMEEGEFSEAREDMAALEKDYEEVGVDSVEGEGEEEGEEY
# [11] = target: T11, HeLa cell extract proteins (Homo sapiens, UniProt Q14203)
# T11 construct: endogenous in cells; host or cells: HeLa cell extract
# T11 sequence (Q14203 whole entry): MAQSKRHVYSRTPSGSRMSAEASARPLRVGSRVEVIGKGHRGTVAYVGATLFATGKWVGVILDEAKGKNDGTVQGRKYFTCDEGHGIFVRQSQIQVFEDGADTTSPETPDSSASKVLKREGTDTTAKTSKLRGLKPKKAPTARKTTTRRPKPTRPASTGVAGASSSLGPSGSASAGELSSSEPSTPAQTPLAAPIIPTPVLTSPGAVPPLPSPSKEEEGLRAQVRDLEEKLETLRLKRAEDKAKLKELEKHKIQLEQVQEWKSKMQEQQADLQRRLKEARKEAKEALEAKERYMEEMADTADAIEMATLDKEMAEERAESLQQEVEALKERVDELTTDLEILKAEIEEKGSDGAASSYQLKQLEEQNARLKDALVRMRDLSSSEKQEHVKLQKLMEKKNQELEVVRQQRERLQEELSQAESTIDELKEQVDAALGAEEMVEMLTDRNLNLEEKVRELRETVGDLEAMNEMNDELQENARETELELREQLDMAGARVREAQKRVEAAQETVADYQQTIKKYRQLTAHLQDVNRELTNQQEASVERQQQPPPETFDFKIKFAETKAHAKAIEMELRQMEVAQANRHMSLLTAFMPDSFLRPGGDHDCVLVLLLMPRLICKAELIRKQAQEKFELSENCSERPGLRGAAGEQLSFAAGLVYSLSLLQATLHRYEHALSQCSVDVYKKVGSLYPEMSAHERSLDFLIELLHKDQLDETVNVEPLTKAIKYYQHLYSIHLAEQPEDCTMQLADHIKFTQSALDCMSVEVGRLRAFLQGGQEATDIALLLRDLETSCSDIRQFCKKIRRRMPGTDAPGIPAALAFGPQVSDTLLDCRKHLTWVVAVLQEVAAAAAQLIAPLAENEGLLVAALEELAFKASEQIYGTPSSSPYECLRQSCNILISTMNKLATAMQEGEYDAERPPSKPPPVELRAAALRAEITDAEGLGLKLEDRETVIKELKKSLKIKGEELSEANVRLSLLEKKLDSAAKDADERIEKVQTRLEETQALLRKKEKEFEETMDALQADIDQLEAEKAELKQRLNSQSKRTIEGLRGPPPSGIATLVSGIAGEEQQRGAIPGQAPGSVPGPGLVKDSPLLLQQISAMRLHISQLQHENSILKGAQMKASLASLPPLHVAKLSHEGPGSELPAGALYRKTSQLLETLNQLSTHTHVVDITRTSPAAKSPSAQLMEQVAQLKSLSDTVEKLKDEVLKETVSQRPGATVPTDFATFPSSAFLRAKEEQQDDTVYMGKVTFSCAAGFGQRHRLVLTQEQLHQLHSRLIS
# [12] = HeLa, protein IPP (ACTIN-BINDING PROTEIN IPP)
# [13] = HeLa, protein UPP1 (ISOFORM 1 OF URIDINE PHOSPHORYLASE 1)
# [14] = HeLa, protein IDH1 (ISOCITRATE DEHYDROGENASE [NADP] CYTOPLASMIC.)
Structure (SMILES),"fold changes relative to vehicle control [1, 12]","fold changes relative to vehicle control ([2]; HeLa, captured protein IDH1)","fold changes relative to vehicle control ([3]; protein ANXA1, HeLa)","fold changes relative to vehicle control ([4]; HeLa, protein PTBP1)","fold changes relative to vehicle control ([5]; HeLa, protein HSPE1)","fold changes relative to vehicle control [6, 13]","fold changes relative to vehicle control ([7]; HeLa, protein PTDSS1)","fold changes relative to vehicle control ([8]; HeLa, protein STT3A)","fold changes relative to vehicle control ([9]; HeLa, captured protein CTTN)","fold changes relative to vehicle control ([10]; HeLa, protein TUBA1A)","fold changes relative to vehicle control ([11]; protein DCTN1, HeLa)","fold changes relative to vehicle control ([1]; protein IPP, HeLa)","fold changes relative to vehicle control [2, 14] [fold]","fold changes relative to vehicle control ([4]; protein PTBP1, HeLa)","fold changes relative to vehicle control ([5]; protein HSPE1, HeLa)","fold changes relative to vehicle control ([6]; HeLa, protein UPP1)","fold changes relative to vehicle control ([7]; captured protein PTDSS1, HeLa)","fold changes relative to vehicle control ([9]; protein CTTN, HeLa)",other results
"Nc1nc2c(c(=O)[nH]1)N(C=O)C(CNc1ccc(C(=O)N[C@@H](CCC(=O)O)C(=O)O)cc1)CN2 (some centres unmarked) [LEU, leucovorin]",0.99,1.14,0.81,0.98,1.16,1.01,0.84,1.1,0.99,0.95,1.14,,,,,,,,
"Nc1nc2[nH]cc(CCc3ccc(C(=O)N[C@@H](CCC(=O)O)C(=O)O)cc3)c2c(=O)[nH]1 [PTX, pemetrexed]",,,,,,,,,,,,,,,,,,,fold changes relative to vehicle control [1]: 0.92; fold changes relative to vehicle control [2]: 1.18; fold changes relative to vehicle control [3]: 0.98; fold changes relative to vehicle control [4]: 0.95; fold changes relative to vehicle control [5]: 1.42; fold changes relative to vehicle control [6]: 1.11; fold changes relative to vehicle control [7]: 0.8; fold changes relative to vehicle control [8]: 0.89; fold changes relative to vehicle control [9]: 0.97; fold changes relative to vehicle control [10]: 0.91; fold changes relative to vehicle control [11]: 1.17
CCCCCCOc1ccc(Cc2cnc(N)nc2N)cc1 [compound 1],,,1.21,,,,,0.96,,0.95,1.18,1.03,1.52,0.97,1.38,0.88,0.68,1.04,
CCCCCCOc1cccc(Cc2cnc(N)nc2N)c1 [compound 2],,,1.86,,,,,1.08,,0.92,1.27,1.05,2.46,1.55,2.39,1.16,1.03,1.18,
Nc1nc2cccc(-c3ccccc3)c2n1Cc1ccc(Cl)c(Cl)c1 [compound 3],,,0.86,,,,,1.36,,1.06,1.1,0.93,0.95,1.08,0.85,1.05,0.77,0.94,
NCCOCCOCC(=O)Nc1nc2ncc(CNc3ccc(C(=O)NC(CCC(=O)O)C(=O)O)cc3)nc2c(=O)[nH]1 (centres unmarked) [compound 6],0.89,1.29,1.24,1.03,1.69,0.44,0.89,0.96,1.06,0.97,1.32,,,,,,,,
NCCCNc1ccc(C(=O)NC(CCC(=O)O)C(=O)O)cc1 (centres unmarked) [compound 7],0.9,0.96,0.87,1.05,1.15,0.96,0.96,0.93,0.96,1,1.03,,,,,,,,
